Laboratory results: ChEMBL document CHEMBL1201862, “PubChem BioAssay data set” (2004)
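Results reflect a 48-hour exposure of cells in 96-well plates to compound at five concentrations. GI50 = concentration required for 50% inhibition of growth.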 Activity calls are given as the source filed them. Rule as the data show it: active = GI50 up to about 1.1 µM and inactive = higher.

Legend:
Experiment in all cases: growth of human tumour cells (NCI), 48 h
[1] = test system: A549
[2] = test system: ACHN
[3] = test system: CCRF-CEM
[4] = test system: COLO 205
[5] = test system: HCT-116
[6] = test system: HCT-15
[7] = test system: HOP-62
[8] = test system: KM12
[9] = test system: MDA-MB-231
[10] = test system: NCI-H23
[11] = test system: OVCAR-4
[12] = test system: RXF 393
[13] = test system: SF-268
[14] = test system: SK-OV-3
[15] = test system: SN12C
[16] = test system: TK-10
[17] = test system: U-251
[18] = test system: UACC-257
[19] = test system: A498
[20] = test system: NCI-H522

Row | Compound | GI50 [1] | GI50 [2] | GI50 [3] | GI50 [4] | GI50 [5] | GI50 [6] [µM] | GI50 [7] | GI50 [8] | GI50 [9] | GI50 [10] | GI50 [11] | GI50 [12] | GI50 [13] | GI50 [14] | GI50 [15] | GI50 [16] | GI50 [17] | GI50 [18] | GI50 [19] | GI50 [20]
1 | CCOC(=O)c1c(-c2ccc(OC)cc2)c(C#N)c(=S)n(C2OC(CO)C(O)C(O)C2O)c1-c1ccccc1 (stereo unspecified) | > 100 µM (inactive) | 54.7 µM (inactive) | 31.2 µM (inactive) | 49.3 µM (inactive) | 27.2 µM (inactive) | 56 | 25.4 µM (inactive) | 51.2 µM (inactive) | 36 µM (inactive) | 31.8 µM (inactive) | 34.3 µM (inactive) | 26.2 µM (inactive) | 68.7 µM (inactive) | 90.6 µM (inactive) | 42.7 µM (inactive) | 55.6 µM (inactive) | 47.1 µM (inactive) | > 100 µM (inactive) |  | 
2 | C#CCNC(=O)ON1C(=O)CCC1=O | > 100 µM (inactive) | > 100 µM (inactive) | > 100 µM (inactive) | > 100 µM (inactive) | > 100 µM (inactive) | > 100 | > 100 µM (inactive) | > 100 µM (inactive) |  | > 100 µM (inactive) | > 100 µM (inactive) | > 100 µM (inactive) | > 100 µM (inactive) | > 100 µM (inactive) | > 100 µM (inactive) | > 100 µM (inactive) | > 100 µM (inactive) | > 100 µM (inactive) | > 100 µM (inactive) | > 100 µM (inactive)
3 | c1ccc(CNc2ccc3[nH]c4cnccc4c3c2)cc1 | 17.9 µM (inactive) | 15.1 µM (inactive) | 16.9 µM (inactive) | 15.9 µM (inactive) | 17.5 µM (inactive) | 19.4 | 17.2 µM (inactive) | 17.3 µM (inactive) |  | 15.1 µM (inactive) | 14.4 µM (inactive) | 13.6 µM (inactive) | 16.4 µM (inactive) | 18.8 µM (inactive) | 16.9 µM (inactive) | 20 µM (inactive) | 15.9 µM (inactive) | 17.4 µM (inactive) | 15 µM (inactive) | 14 µM (inactive)
4 | COc1ccc(C2[C@H]3C(=O)N(c4ccc(Cc5ccc(N6C(=O)[C@@H]7ON(c8ccccc8)C(c8ccc(OC)cc8)[C@@H]7C6=O)cc5)cc4)C(=O)[C@H]3ON2c2ccccc2)cc1 (stereo partly specified) | > 100 µM (inactive) | > 100 µM (inactive) | > 100 µM (inactive) | > 100 µM (inactive) | > 100 µM (inactive) | > 100 | > 100 µM (inactive) | > 100 µM (inactive) |  | > 100 µM (inactive) | > 100 µM (inactive) | > 100 µM (inactive) | > 100 µM (inactive) | > 100 µM (inactive) | > 100 µM (inactive) | > 100 µM (inactive) | > 100 µM (inactive) | > 100 µM (inactive) | > 100 µM (inactive) | > 100 µM (inactive)
5 | O=C1Oc2cc(O)cc(/C=C/c3ccc(O)cc3)c2[C@@]12c1c(O)cc(O)cc1OC2c1cccc(O)c1 (stereo partly specified) | 54 µM (inactive) | 52.5 µM (inactive) | 22 µM (inactive) | 26 µM (inactive) | 29 µM (inactive) | 83.4 | 20.3 µM (inactive) | 25.6 µM (inactive) | 26.4 µM (inactive) | 24.7 µM (inactive) | 56.2 µM (inactive) | 34.6 µM (inactive) | 36.6 µM (inactive) | 30.8 µM (inactive) | 25.9 µM (inactive) | 39.1 µM (inactive) | 32.9 µM (inactive) | 15.2 µM (inactive) |  | 
6 | O=C(Cc1nc2ccccc2c(=O)n1-c1c(Cl)cccc1Cl)c1ccncc1 | 21.4 µM (inactive) | 17.9 µM (inactive) | 16.7 µM (inactive) | 17.8 µM (inactive) | 17.8 µM (inactive) | 24.7 | 21.3 µM (inactive) | 15.8 µM (inactive) |  | 36.8 µM (inactive) | 27.5 µM (inactive) | 18.5 µM (inactive) | 31 µM (inactive) | 53.1 µM (inactive) | 85.9 µM (inactive) | > 10 µM (inactive) | 29.6 µM (inactive) | 22.3 µM (inactive) | 30.5 µM (inactive) | 19.6 µM (inactive)
7 | CCCCCCCCCCCC1CC(=O)NCCCN(C)CCCCN(C)CCCN1C (stereo unspecified) [BUDMUNCHIAMINE A] | 1.76 µM (inactive) | 1.69 µM (inactive) | 0.156 µM (active) | 1.53 µM (inactive) | 1.55 µM (inactive) | 1.63 | 1.66 µM (inactive) | 1.58 µM (inactive) |  | 1.73 µM (inactive) | 1.74 µM (inactive) | 1.6 µM (inactive) | 1.85 µM (inactive) | 1.8 µM (inactive) | 1.74 µM (inactive) | 1.73 µM (inactive) | 1.66 µM (inactive) | 1.68 µM (inactive) | 1.67 µM (inactive) | 1.81 µM (inactive)
